Reference: patent US9050315B2, “In vivo and ex vivo expansion of hematopoietic stem cells with a targeted combination of clinically tested, FDA approved drugs” (The Trustees of the University of Pennsylvania, priority 2010, dated 2015)
Entries after “also recorded” stand apart in the source; their conditions may differ.

Experiments:
LSK cells = conditions: cited from earlier work
c-Kit+ cells = assay: Colony formation assay in methylcellulose with hematopoietic cytokines; type: cell-based, mice; conditions: c-Kit+ cells treated 3 days ex vivo, then methylcellulose 10-14 days
Description: The primary cultures are shown.
Methylcellulose culture: Sorted GFP^+ BM cells were plated in individual wells of 6-well plates (Corning) containing 550 μl 1.0% methylcellulose (Stem Cell Technologies) as previously described (Trowbridge, et al., 2006, Nature. 441:518-522). The methylcellulose was supplemented with 1% penicillin/streptomycin (Gibco; Invitrogen), 50 ng/ml SCF, 10 ng/ml IL-3, 10 ng/ml IL-6, and 3 U/ml erythropoietin. Colonies were incubated at 37° C. in humidified incubators at 5% CO2. Colony formation was scored by counting all colonies of greater than 30 viable cells after 10-14 days of culture.
To test whether progenitor cells are increased by lithium treatment, colony formation assays were performed. […] To confirm these studies, bone marrow cells were isolated from lithium treated mice and cultured in methylcellulose with hematopoietic cytokines.

Structure (SMILES)	increase in LSK cells (LSK cells; treated mice, Trowbridge et al. 2006)	hematopoietic colony number (c-Kit+ cells)	HSCs measured by long-term competitive repopulation assay (LSK cells; mice, Goessling et al. 2009)	overall marrow cellularity (LSK cells (HSCs/HPCs); mice treated 2 weeks, vs control)	number of LSK cells in bone marrow (LSK cells (HSCs/HPCs); mice treated 2 weeks, vs control (NaCl for lithium), FCM)	bone marrow morphology / architecture (LSK cells (HSCs/HPCs); treated versus control marrows)
Cc1c[nH]c(-c2cnc(NCCNc3ccc(C#N)cn3)nc2-c2ccc(Cl)cc2Cl)n1 [CHIR-911]	approximately 50%					
COc1ccc(CNC(=O)Nc2ncc([N+](=O)[O-])s2)cc1 [AR-A014418]		marked increase; also recorded: increased				
O=C1Nc2cc(Br)ccc2/C1=C1/Nc2ccccc2/C1=N\O [6BIO, 6-bromo-indirubin 3′-oxime]		marked increase; also recorded: increased	increases HSCs	increased marrow cellularity; also recorded: parallel increase	pronounced increase; also recorded: increased	no observable change
